From paper PMC11864979, “First-in-class ultralong-target-residence-time p38α inhibitors as a mitosis-targeted therapy for colorectal cancer” (Nature Cancer, 2025)
Read-outs that look alike come from different tables or passages of the source.

What was measured:
Assay in all cases: selectivity profiling in a panel of 340 wild-type kinases (Reaction Biology Europe)
Format in all cases: binding
340 wild-type kinases [1] = target: T1, 340 wild-type kinases (Homo sapiens, UniProt Q9H0K1)
T1 construct: purchased Reaction Biology Europe

340 wild-type kinases [2] = target: T2, 340 wild-type kinases (Homo sapiens, UniProt P25098)
T2 construct: purchased Reaction Biology Europe
T2 sequence (P25098 1-689): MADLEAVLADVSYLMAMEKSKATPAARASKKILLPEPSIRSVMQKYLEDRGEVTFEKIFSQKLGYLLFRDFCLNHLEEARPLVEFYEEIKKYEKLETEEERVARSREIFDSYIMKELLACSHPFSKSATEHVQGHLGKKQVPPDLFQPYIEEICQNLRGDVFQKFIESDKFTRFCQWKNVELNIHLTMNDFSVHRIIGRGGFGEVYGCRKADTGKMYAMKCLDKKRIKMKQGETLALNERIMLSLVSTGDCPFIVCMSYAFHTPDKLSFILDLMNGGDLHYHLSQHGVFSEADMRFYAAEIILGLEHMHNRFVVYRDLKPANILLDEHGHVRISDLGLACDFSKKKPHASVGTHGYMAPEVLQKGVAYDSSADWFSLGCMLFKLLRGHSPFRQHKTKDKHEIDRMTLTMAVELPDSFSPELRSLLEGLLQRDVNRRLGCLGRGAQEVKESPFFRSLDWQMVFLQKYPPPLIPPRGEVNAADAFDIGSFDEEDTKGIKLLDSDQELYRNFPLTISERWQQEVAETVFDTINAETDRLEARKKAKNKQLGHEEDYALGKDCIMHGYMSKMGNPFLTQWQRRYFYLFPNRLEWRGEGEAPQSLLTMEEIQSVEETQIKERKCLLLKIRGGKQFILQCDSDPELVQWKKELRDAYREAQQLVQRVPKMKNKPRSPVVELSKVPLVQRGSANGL

340 wild-type kinases [3] = target: T3, 340 wild-type kinases (Homo sapiens, UniProt Q99640)
T3 construct: purchased Reaction Biology Europe
T3 sequence (Q99640 1-499): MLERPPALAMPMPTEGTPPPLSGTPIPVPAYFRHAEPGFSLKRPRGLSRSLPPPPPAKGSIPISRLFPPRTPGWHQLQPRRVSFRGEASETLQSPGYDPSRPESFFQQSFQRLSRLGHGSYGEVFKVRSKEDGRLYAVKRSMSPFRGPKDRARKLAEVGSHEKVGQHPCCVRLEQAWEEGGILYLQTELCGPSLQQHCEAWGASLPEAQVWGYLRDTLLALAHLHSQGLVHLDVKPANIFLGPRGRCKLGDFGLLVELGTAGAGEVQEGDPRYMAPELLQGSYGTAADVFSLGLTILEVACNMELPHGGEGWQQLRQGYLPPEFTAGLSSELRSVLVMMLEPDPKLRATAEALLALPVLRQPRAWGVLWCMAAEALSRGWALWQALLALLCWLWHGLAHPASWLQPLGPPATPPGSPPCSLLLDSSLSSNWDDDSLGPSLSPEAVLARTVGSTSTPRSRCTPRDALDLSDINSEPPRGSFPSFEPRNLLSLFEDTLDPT

340 wild-type kinases [4] = target: T4, 340 wild-type kinases (Homo sapiens, UniProt Q9NYL2)
T4 construct: purchased Reaction Biology Europe

340 wild-type kinases [5] = target: T5, 340 wild-type kinases (Homo sapiens, UniProt O15146)
T5 construct: purchased Reaction Biology Europe
T5 sequence (O15146 24-869): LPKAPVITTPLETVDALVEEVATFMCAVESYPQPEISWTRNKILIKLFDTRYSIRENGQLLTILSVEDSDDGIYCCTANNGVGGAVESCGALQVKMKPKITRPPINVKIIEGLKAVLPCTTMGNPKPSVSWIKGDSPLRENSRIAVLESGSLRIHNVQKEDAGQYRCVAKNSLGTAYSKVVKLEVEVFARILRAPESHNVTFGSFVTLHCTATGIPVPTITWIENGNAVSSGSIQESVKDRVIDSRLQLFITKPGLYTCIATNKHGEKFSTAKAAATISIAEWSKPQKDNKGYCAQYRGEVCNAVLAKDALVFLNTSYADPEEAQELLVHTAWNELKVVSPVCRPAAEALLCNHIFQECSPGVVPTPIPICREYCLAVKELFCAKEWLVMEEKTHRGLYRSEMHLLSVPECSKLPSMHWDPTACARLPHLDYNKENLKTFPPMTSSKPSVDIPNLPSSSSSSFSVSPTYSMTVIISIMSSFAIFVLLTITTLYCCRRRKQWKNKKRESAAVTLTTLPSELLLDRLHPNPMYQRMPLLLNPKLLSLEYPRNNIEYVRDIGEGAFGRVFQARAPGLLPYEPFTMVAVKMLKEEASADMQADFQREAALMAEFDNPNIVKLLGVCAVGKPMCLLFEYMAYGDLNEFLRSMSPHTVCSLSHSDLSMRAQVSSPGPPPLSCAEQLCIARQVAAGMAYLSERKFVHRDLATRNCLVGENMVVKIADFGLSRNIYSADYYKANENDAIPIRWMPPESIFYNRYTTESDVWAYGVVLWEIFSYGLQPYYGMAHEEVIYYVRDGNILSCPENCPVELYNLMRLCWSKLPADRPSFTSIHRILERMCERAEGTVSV

340 wild-type kinases [6] = target: T6, 340 wild-type kinases (Homo sapiens, UniProt Q9P286)
T6 construct: purchased Reaction Biology Europe

340 wild-type kinases [7] = details: for residual activity: RAF1 YDYD
340 wild-type kinases [8] = target: T7, 340 wild-type kinases (Homo sapiens, UniProt Q13164)
T7 construct: purchased Reaction Biology Europe
T7 sequence (Q13164 whole entry): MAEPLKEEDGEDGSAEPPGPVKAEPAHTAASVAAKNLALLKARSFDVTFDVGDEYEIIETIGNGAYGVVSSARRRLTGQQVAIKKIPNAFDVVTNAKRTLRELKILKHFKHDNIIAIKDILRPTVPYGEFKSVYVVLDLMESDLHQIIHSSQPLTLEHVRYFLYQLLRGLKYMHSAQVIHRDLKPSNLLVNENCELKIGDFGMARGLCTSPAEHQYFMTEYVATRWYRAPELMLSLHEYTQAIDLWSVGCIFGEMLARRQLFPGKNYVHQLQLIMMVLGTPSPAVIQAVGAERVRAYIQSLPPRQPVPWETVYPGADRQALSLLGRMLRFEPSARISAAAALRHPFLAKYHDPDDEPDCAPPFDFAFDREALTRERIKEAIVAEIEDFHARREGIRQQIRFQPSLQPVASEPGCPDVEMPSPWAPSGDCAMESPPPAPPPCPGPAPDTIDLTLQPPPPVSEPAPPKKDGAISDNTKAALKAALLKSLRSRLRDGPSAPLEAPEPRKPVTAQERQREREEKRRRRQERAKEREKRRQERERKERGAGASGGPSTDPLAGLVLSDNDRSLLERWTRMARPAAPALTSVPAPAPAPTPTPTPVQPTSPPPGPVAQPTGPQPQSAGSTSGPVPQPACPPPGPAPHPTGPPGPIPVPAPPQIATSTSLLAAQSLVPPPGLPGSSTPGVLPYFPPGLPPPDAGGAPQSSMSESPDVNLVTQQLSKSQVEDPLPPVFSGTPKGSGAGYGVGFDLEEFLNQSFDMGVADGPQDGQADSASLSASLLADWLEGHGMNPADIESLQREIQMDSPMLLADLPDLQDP

T4 sequence (Q9NYL2 whole entry): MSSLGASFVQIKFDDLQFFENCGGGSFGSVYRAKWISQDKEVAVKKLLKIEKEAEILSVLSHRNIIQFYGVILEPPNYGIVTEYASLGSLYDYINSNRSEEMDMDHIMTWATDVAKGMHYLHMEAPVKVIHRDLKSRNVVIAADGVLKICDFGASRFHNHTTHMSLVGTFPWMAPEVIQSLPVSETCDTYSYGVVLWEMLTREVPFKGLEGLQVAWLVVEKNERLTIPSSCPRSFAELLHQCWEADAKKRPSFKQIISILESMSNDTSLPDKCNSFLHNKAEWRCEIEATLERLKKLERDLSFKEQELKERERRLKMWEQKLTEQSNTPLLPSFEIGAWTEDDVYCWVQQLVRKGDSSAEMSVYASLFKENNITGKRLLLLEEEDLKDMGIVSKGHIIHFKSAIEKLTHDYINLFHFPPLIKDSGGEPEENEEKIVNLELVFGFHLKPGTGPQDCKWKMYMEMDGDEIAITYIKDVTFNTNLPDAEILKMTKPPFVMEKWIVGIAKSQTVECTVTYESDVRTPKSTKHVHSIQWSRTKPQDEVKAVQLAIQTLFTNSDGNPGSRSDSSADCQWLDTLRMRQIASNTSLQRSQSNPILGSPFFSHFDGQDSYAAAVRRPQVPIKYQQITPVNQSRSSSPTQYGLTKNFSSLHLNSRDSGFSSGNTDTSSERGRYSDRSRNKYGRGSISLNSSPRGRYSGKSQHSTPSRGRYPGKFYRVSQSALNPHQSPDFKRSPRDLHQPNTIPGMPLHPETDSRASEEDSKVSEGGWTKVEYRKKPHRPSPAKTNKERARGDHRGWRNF
T6 sequence (Q9P286 whole entry): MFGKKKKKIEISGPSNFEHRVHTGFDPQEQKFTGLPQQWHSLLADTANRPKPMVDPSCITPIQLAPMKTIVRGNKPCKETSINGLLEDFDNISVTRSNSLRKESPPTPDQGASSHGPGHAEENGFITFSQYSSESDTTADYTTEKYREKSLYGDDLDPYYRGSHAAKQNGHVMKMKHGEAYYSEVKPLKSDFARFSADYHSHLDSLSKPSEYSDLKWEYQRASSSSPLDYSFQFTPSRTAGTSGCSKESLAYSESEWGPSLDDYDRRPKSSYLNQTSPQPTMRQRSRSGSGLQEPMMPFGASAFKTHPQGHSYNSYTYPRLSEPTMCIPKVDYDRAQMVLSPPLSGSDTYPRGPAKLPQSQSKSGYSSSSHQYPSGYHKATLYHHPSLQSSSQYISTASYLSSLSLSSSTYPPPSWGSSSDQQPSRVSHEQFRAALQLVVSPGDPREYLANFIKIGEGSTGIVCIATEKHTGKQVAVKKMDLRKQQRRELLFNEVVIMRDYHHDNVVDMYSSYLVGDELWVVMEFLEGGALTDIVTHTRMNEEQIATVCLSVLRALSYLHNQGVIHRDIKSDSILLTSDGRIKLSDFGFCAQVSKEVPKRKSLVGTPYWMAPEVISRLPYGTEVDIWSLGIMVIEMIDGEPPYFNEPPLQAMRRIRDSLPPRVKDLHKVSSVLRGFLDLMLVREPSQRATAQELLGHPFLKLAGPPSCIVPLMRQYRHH
T1 sequence (Q9H0K1 whole entry): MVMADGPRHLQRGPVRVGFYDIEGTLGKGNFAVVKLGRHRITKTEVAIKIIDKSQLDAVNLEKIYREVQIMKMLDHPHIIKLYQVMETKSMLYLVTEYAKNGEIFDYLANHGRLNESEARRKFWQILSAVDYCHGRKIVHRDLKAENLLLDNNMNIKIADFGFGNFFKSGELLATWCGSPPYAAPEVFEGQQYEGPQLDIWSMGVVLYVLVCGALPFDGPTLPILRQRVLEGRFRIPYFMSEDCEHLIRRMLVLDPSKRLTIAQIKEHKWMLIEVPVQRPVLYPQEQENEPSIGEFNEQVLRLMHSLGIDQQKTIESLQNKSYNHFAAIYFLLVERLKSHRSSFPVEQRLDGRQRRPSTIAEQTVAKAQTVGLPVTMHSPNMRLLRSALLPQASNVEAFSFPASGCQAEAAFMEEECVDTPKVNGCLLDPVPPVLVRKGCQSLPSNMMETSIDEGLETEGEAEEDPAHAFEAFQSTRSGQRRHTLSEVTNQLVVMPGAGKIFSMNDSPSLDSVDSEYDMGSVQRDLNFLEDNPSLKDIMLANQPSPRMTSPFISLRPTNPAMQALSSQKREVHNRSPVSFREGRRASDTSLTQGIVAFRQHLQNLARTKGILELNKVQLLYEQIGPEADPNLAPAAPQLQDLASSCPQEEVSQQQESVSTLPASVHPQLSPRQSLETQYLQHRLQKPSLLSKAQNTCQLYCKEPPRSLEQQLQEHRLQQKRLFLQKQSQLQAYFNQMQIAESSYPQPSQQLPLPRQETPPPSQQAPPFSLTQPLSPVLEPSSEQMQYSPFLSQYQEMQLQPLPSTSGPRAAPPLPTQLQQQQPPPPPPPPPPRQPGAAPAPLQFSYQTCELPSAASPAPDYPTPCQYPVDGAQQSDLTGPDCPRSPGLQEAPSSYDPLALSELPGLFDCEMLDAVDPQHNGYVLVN

CNC(=O)c1ccc2c(c1)C(=O)c1ccc(Nc3ccc(F)c(NC(=O)C4CC4)c3)cc1CC2 [Compound 2015]
remaining activity at 0.2 µM (340 wild-type kinases [1]; 0.2 µM 2015, read-out: SIK2 residual activity): 101%
remaining activity at 1 µM (340 wild-type kinases [1]; 1 µM 2015, read-out: SIK2 residual activity): 98.1%
remaining activity at 0.2 µM (340 wild-type kinases [1]; SIK2, 0.2 µM, read-out: residual activity): 101%
remaining activity at 1 µM (340 wild-type kinases [1]; SIK2, 1 µM, read-out: residual activity): 98.1%
remaining activity at 0.2 µM (340 wild-type kinases [2]; 0.2 µM 2015, read-out: GRK2 residual activity): 89.1%
remaining activity at 0.2 µM (340 wild-type kinases [2]; GRK2, 0.2 µM, read-out: residual activity): 89.2%
remaining activity at 1 µM (340 wild-type kinases [2]; GRK2, 1 µM, read-out: residual activity): 80.8%
remaining activity at 0.2 µM (340 wild-type kinases [3]; 0.2 µM 2015, read-out: PKMYT1 residual activity): 98.1%
remaining activity at 1 µM (340 wild-type kinases [3]; 1 µM 2015, read-out: PKMYT1 residual activity): 102%
remaining activity at 0.2 µM (340 wild-type kinases [3]; PKMYT1, 0.2 µM, read-out: residual activity): 98%
remaining activity at 1 µM (340 wild-type kinases [3]; PKMYT1, 1 µM, read-out: residual activity): 102%
remaining activity at 0.2 µM (340 wild-type kinases [4]; 0.2 µM 2015, read-out: ZAK residual activity): 110%
remaining activity at 1 µM (340 wild-type kinases [4]; 1 µM 2015, read-out: ZAK residual activity): 104%
remaining activity at 0.2 µM (340 wild-type kinases [4]; ZAK, 0.2 µM, read-out: residual activity): 110%
remaining activity at 1 µM (340 wild-type kinases [4]; ZAK, 1 µM, read-out: residual activity): 104%
remaining activity at 0.2 µM (340 wild-type kinases [5]; 0.2 µM 2015, read-out: MUSK residual activity): 87.5%
remaining activity at 1 µM (340 wild-type kinases [5]; 1 µM 2015, read-out: MUSK residual activity): 87.3%
remaining activity at 0.2 µM (340 wild-type kinases [5]; MUSK, 0.2 µM, read-out: residual activity): 87.5%
remaining activity at 1 µM (340 wild-type kinases [5]; MUSK, 1 µM, read-out: residual activity): 87.3%
remaining activity at 0.2 µM (340 wild-type kinases [6]; 0.2 µM 2015, read-out: PAK7 residual activity): 97.1%
remaining activity at 1 µM (340 wild-type kinases [6]; 1 µM 2015, read-out: PAK7 residual activity): 84.3%
remaining activity at 0.2 µM (340 wild-type kinases [6]; PAK7, 0.2 µM, read-out: residual activity): 97.1%
remaining activity at 1 µM (340 wild-type kinases [6]; PAK7, 1 µM, read-out: residual activity): 84.3%
PKCbeta2 residual activity (340 wild-type kinases [7]; 0.2 µM 2015): 102.668%
PKCbeta2 residual activity (340 wild-type kinases [7]; 1 µM 2015): 108.52%
residual activity (340 wild-type kinases [7]; 0.2 µM): 80.31%
residual activity (340 wild-type kinases [7]; 1 µM): 88.78%
effect on p38α and p38β (in words) (340 wild-type kinases [7]; panel of 340 kinases, 1 µM and 0.2 µM): specifically inhibited
remaining activity at 0.2 µM (340 wild-type kinases [8]; 0.2 µM 2015, read-out: ERK5 residual activity): 112%
remaining activity at 1 µM (340 wild-type kinases [8]; 1 µM 2015, read-out: ERK5 residual activity): 99%
remaining activity at 0.2 µM (340 wild-type kinases [8]; ERK5, 0.2 µM, read-out: residual activity): 112%
remaining activity at 1 µM (340 wild-type kinases [8]; ERK5, 1 µM, read-out: residual activity): 99%
